Assay results as given in ChEMBL document CHEMBL6071177, “Medium-Ring Keto Bislactams with Antischistosomal Activity” (J Med Chem, 2024).
Converted amounts (≈) assume the structure as drawn.

Tests used:
[1] = Lipophilicity, logD of compound at pH 7.4 by HPLC analysis; type: physicochemical; settings: buffer
[2] = Intrinsic clearance in human liver microsomes
Schistosoma mansoni [3] = assay: Anti-schistosomal activity against adult Schistosoma mansoni assessed as parasite viability at 10 uM measured after 3 days relative to control; type: functional; settings: time 3 day
[4] = Solubility of compound in 0.01 M HCl at pH 2.0 by nephelometry; type: physicochemical
[5] = Intrinsic clearance in mouse liver microsomes
[6] = Cytotoxicity against rat L6 cells; type: toxicity, cell-based
[7] = Solubility of compound in phosphate buffer at pH 6.5 by nephelometry; type: physicochemical
Schistosoma mansoni [8] = assay: Anti-schistosomal activity against newly transformed Schistosoma mansoni assessed as parasite viability at 10 uM measured after 3 days relative to control; type: functional; settings: time 3 day
[9] = Cmax in Swiss mouse at 100 mg/kg, po measured upto 48 hrs by LC-MS analysis; type: ADME, organism-based; settings: in vivo
[10] = AUC (0 to 24 hrs) in Swiss mouse at 100 mg/kg, po measured upto 48 hrs by LC-MS analysis; type: ADME, organism-based; settings: in vivo
Schistosoma mansoni [11] = assay: Ex vivo anti-schistosomal activity against adult Schistosoma mansoni assessed as inhibition of parasite viability measured after 3 days; type: functional, organism-based; settings: 72 h
[12] = Half life in Swiss mouse at 100 mg/kg, po measured upto 48 hrs by LC-MS analysis; type: ADME, organism-based; settings: in vivo

Structure (SMILES) | logD [1] | CLH [2] | Activity (Schistosoma mansoni [3]) | solubility kinetic [4] | CLH [5] | IC50 [6] | solubility kinetic [7] | Activity (Schistosoma mansoni [8]) | Cmax [9] | AUC [10] | IC50 (Schistosoma mansoni [11]) | t1/2 [12]
O=C1CCN2C(=O)c3ccccc3C2C(=O)Nc2ccc(F)cc21 (configuration not stated) | 1.4 | 45.4 µL/min/mg | 40% | 160 µM (≈ 51.9 µg/mL) | 258 µL/min/mg | > 310 µM | > 320 µM | 30% |  |  |  | 
O=C1Nc2ccccc2C2(O)CCN3C12c1ccccc1S3(=O)=O (configuration not stated) | 1 | 4.6 µL/min/mg | 61% | 80 µM (≈ 27.4 µg/mL) | 11.6 µL/min/mg | > 290 µM | > 160 µM | 47% |  |  |  | 
O=C1CCN2C(=O)c3cc(Cl)c(Cl)cc3C2C(=O)Nc2ccccc21 (configuration not stated) | 2.4 |  | 40% | 80 µM (≈ 30 µg/mL) |  | 190 µM | 160 µM (≈ 60 µg/mL) | 31% |  |  |  | 
O=C1CCN2C(=O)c3cc(F)c(F)cc3C2C(=O)Nc2ccccc21 (configuration not stated) | 1.7 |  | 34% | > 320 µM |  | > 290 µM | 160 µM (≈ 54.8 µg/mL) | 37% |  |  |  | 
CO/N=C1/CCN2C(=O)c3ccccc3C2C(=O)Nc2ccccc21 (configuration not stated) | 1.6 | 13.2 µL/min/mg | 41% | > 320 µM | 80.3 µL/min/mg | > 300 µM | > 320 µM | 33% |  |  |  | 
O=C1CCn2c(nc3ccccc3c2=O)C(=O)Nc2ccccc21 | 1.8 | 21.7 µL/min/mg | 20% | > 320 µM | 38.2 µL/min/mg | 52 µM | > 320 µM | 31% |  |  |  | 
O=C1CCN2C(=O)CCC2C(=O)Nc2ccccc21 (configuration not stated) | < 0 | 17 µL/min/mg | 31% | 160 µM (≈ 41.3 µg/mL) | 35 µL/min/mg | > 390 µM | > 320 µM | 13% |  |  |  | 
O=C1CCN2C(=O)c3cc4ccccc4cc3C2C(=O)Nc2ccccc21 (configuration not stated) | 2.3 | 97.4 µL/min/mg | 40% | > 320 µM | 212 µL/min/mg | 98 µM | > 320 µM | 48% |  |  |  | 
O=C1CCN2C(=O)c3ccccc3C2C(=O)Nc2ccc(Cl)cc21 (configuration not stated) | 1.8 | 101 µL/min/mg | 40% | 160 µM (≈ 54.5 µg/mL) | 413 µL/min/mg | 220 µM | > 320 µM | 38% |  |  |  | 
CC12C(=O)Nc3ccccc3C(=O)CCN1C(=O)c1ccccc12 (configuration not stated) | 1.7 | 34 µL/min/mg | 35% | 160 µM (≈ 51.3 µg/mL) | 136 µL/min/mg | > 300 µM | 160 µM (≈ 51.3 µg/mL) | 25% |  |  |  | 
O=C1c2ccccc2C23C(=O)Nc4ccccc4C2(O)CCN13 (configuration not stated) | 0.9 | < 7 µL/min/mg | 48% | 40 µM (≈ 12.3 µg/mL) | < 7 µL/min/mg | > 330 µM | 40 µM (≈ 12.3 µg/mL) | 18% |  |  |  | 
COc1cc2c(cc1OC)C1C(=O)Nc3ccccc3C(=O)CCN1C2=O (configuration not stated) | 1.2 | 20.7 µL/min/mg | 38% | 160 µM (≈ 58.6 µg/mL) | 37.4 µL/min/mg | 150 µM | > 320 µM | 23% |  |  |  | 
COC(=O)[C@@H]1CC(=O)c2ccccc2NC(=O)C2c3ccccc3C(=O)N21 (some centres not stated) | 1.7 | 55.5 µL/min/mg | 27% | 80 µM (≈ 29.1 µg/mL) | 102 µL/min/mg | > 270 µM | 160 µM (≈ 58.3 µg/mL) | 50% |  |  |  | 
O=C1CCN2C(C(=O)Nc3ccccc31)c1ccccc1S2(=O)=O (configuration not stated) | 1.7 |  | 44% | 80 µM (≈ 27.4 µg/mL) |  | 130 µM | 160 µM (≈ 54.8 µg/mL) | 27% |  |  |  | 
O=C1C[C@@H](CO)N2C(=O)c3ccccc3C2C(=O)Nc2ccccc21 (some centres not stated) | 0.8 | 19.6 µL/min/mg | 47% | 80 µM (≈ 26.9 µg/mL) | 61.6 µL/min/mg | 230 µM | 80 µM (≈ 26.9 µg/mL) | 38% |  |  |  | 
O=C1Nc2ccccc2CCCN2C(=O)c3ccccc3C12 (configuration not stated) | 1.5 | 35.7 µL/min/mg | 31% | 160 µM (≈ 46.8 µg/mL) | 100 µL/min/mg | > 340 µM | > 320 µM | 48% |  |  |  | 
O=c1c2c([nH]c3ccccc13)C1c3ccccc3S(=O)(=O)N1C2 (configuration not stated) | 2 | 11 µL/min/mg | 47% | 40 µM (≈ 13 µg/mL) | 45.8 µL/min/mg | 200 µM | 40 µM (≈ 13 µg/mL) | 22% |  |  |  | 
CN1C(=O)C2c3ccccc3C(=O)N2CCC(=O)c2ccccc21 (configuration not stated) | 1.9 | 71 µL/min/mg | 39% | > 320 µM | 174 µL/min/mg | > 300 µM | > 320 µM | 23% |  |  |  | 
COC1CCN2C(=O)c3ccccc3C2C(=O)Nc2ccccc21 (configuration not stated) | 1.4 | 23.2 µL/min/mg | 31% | 80 µM (≈ 25.8 µg/mL) | 90.5 µL/min/mg | > 310 µM | 160 µM (≈ 51.6 µg/mL) | 25% |  |  |  | 
O=C(C1CCCCC1)N1CC(=O)N2CCc3ccccc3C2C1 (configuration not stated) [PRAZIQUANTEL] | 3 |  | 100% | > 320 µM |  |  | > 320 µM | 78% |  |  |  | 
O=C1CCN2C(=O)c3c(F)c(F)c(F)c(F)c3C2C(=O)Nc2ccccc21 (configuration not stated) | 2 |  | 30% | 160 µM (≈ 60.5 µg/mL) |  | 98 µM | 160 µM (≈ 60.5 µg/mL) | 36% |  |  |  | 
COc1ccc2c(c1)C(=O)CCN1C(=O)c3ccccc3C1C(=O)N2 (configuration not stated) | 1.5 | 57.1 µL/min/mg | 42% | > 320 µM | 280 µL/min/mg | 130 µM | > 320 µM | 50% |  |  |  | 
O=C1CCN2C(=O)c3ccccc3C2C(=O)Nc2ccccc21 (configuration not stated) | 1.2 | 27 µL/min/mg | 61% | 160 µM (≈ 49 µg/mL) | 84 µL/min/mg | > 330 µM | > 320 µM | 51% | 189 ng/mL | 810 ng·h/mL | 2.5 µM | 4.4 h
O=C1CCN2C(=O)c3ccccc3C2C(=O)Nc2cc(F)cc(F)c21 (configuration not stated) | 1.7 | 21.5 µL/min/mg | 40% | 160 µM (≈ 54.8 µg/mL) | 35.6 µL/min/mg | 200 µM | > 320 µM | 23% |  |  |  | 
O=C1CCN2C(=O)c3ccccc3C2C(=O)Nc2cc(F)ccc21 (configuration not stated) | 1.4 |  | 39% | 160 µM (≈ 51.9 µg/mL) |  | > 300 µM | 160 µM (≈ 51.9 µg/mL) | 15% |  |  |  | 
O=C1CCN2C(=O)[C@H]3CCCC[C@H]3C2C(=O)Nc2ccccc21 (some centres not stated) | 1.4 | 22.3 µL/min/mg | 25% | > 320 µM | 43.7 µL/min/mg | 220 µM | > 320 µM | 50% |  |  |  | 
CCOC(=O)c1ccc2c(c1)C(=O)CCN1C(=O)c3ccccc3C1C(=O)N2 (configuration not stated) | 2 | 55.6 µL/min/mg | 38% | 40 µM (≈ 15.1 µg/mL) | 118 µL/min/mg | > 260 µM | 40 µM (≈ 15.1 µg/mL) | 21% |  |  |  | 
